{"source": "paper PMC2756456", "about": "(Clinical cancer research : an official journal of the …, 2009)", "target": "myosin light chain kinase (MLCK) (Homo sapiens, UniProt Q15746)", "sequence (Q15746 whole entry)": "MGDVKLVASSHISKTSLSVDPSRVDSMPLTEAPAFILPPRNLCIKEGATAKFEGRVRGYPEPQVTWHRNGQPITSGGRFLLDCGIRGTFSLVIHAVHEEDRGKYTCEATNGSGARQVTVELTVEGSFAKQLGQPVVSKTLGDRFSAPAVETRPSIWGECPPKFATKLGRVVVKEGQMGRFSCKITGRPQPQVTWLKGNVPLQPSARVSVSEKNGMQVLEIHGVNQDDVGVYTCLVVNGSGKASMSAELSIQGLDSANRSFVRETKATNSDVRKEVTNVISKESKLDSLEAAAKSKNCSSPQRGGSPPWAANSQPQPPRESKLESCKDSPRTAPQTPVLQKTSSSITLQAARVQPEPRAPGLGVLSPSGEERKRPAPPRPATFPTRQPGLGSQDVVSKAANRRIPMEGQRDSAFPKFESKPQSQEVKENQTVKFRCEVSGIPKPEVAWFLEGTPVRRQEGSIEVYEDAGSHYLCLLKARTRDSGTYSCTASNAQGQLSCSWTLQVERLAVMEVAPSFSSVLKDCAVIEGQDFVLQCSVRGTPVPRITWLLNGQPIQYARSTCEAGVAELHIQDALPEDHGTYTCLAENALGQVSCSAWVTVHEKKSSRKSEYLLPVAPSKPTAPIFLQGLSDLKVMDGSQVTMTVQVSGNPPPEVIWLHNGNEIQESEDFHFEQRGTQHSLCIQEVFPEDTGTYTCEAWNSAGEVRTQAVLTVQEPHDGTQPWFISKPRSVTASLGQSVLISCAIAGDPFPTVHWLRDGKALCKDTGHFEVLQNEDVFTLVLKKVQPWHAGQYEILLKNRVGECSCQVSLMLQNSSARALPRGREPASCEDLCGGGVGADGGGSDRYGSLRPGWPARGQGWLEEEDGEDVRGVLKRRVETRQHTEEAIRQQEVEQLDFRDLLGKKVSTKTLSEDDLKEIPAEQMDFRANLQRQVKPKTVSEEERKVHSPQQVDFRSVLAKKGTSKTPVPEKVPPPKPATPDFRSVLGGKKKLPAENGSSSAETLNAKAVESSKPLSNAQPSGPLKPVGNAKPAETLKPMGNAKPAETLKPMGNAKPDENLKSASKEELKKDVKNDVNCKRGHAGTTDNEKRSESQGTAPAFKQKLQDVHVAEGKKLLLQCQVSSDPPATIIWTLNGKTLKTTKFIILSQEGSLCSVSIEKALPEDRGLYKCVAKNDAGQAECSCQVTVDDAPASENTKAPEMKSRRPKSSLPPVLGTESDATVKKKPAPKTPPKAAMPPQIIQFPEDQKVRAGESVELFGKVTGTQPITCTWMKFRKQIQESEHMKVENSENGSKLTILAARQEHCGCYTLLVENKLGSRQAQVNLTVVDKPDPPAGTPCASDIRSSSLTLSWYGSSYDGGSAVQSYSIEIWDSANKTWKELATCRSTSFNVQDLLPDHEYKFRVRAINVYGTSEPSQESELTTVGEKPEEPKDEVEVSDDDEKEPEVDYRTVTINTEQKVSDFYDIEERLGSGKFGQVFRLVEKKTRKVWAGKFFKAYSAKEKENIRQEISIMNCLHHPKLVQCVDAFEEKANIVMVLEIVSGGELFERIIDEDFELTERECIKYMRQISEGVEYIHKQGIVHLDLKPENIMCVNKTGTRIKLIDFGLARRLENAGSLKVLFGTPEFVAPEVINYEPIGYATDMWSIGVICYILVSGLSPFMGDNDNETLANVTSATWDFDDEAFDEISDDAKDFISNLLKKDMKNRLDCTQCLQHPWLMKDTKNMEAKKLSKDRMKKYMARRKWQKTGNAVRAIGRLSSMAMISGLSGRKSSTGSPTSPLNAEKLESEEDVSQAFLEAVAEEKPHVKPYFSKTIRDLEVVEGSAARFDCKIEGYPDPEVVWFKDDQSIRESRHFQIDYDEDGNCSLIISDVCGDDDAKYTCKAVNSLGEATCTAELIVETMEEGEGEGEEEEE", "assay": "radiometric [γ-33P]ATP kinase assay with peptide substrate KKLNRTLSFAEPG", "type": "biochemical", "note": "pIC50: −log10 of the molar value."}
{"compound": "CNCc1ccc(-c2[nH]c3cc(F)cc4c3c2CCNC4=O)cc1", "note": "[AG014699]", "values": [{"measurement": "pIC50", "value": 4.26}]}
